Results taken from publication PMC8294059, “Identification and Immune Assessment of T Cell Epitopes in Five Plasmodium falciparum Blood Stage Antigens to Facilitate Vaccine Candidate Selection and Optimization” (Frontiers in Immunology, 2021).
Where a SMILES comes first, the peptide text is derived from it.

These molecules were tested against HLA-DRB1*0301 (Homo sapiens, UniProt P01903+P01911, A100K/A102G/A103R/A169T/F55Y/I96L/K41T/L162R/M171V/P40S/Q125H/Q178H/Q39Y/R42S/S66N/T106N/T262R/W38E/Y61H) (assay: biochemical). Settings: binding inhibition assay; NB = non-binder (no dose-dependent inhibition); read-out: DRB1*0303 IC50.
Sequence of HLA-DRB1*0301 (P01903 26-254 limits assumed, other chains not shown): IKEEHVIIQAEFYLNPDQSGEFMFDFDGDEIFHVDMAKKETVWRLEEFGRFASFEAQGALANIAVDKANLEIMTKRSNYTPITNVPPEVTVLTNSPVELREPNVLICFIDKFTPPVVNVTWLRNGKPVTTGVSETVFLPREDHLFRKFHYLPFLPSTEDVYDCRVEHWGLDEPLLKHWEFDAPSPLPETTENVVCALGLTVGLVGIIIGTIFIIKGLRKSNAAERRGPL
Format: binding

Row | Molecule | IC50 [µM]
1 | CC[C@H](C)[C@H](NC(=O)[C@H](CC(N)=O)NC(=O)[C@H](CC(N)=O)NC(=O)[C@H](Cc1ccccc1)NC(=O)[C@H](CC(N)=O)NC(=O)[C@H](CC(N)=O)NC(=O)[C@H](CC(N)=O)NC(=O)[C@H](CC(N)=O)NC(=O)[C@H](CO)NC(=O)[C@H](CCCNC(=N)N)NC(C)=O)C(=O)N1CCC[C@H]1C(=O)N[C@@H](CO)C(=O)N[C@@H](CCCNC(=N)N)C(=O)N[C@@H](Cc1ccc(O)cc1)C(=O)N[C@@H](CC(N)=O)C(=O)N[C@@H](CC(C)C)C(=O)N[C@@H](Cc1ccc(O)cc1)C(=O)N[C@@H](CC(=O)O)C(N)=O [EBA175_017B] (Ac-RSNNNNFNNIPSRYNLYD-NH2) | > 100

These molecules were tested against T1, HLA-DRB1*0101 (Homo sapiens, UniProt P01903+P01911, A100R/D57E/F55L/F60I/F76Y/I96L/L162R/M171V/P40L/Q125E/R42F/V115G/Y59C) (assay: biochemical). Settings: binding inhibition assay; NB = non-binder (no dose-dependent inhibition); read-out: DRB1*0101 IC50.
T1 construct: purchased
Format: binding
Procedure, shortened: (§1)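 HLA-peptide complexes are captured with anti-HLA-DR antibody, and bound reference is quantified by europium-probe time-resolved fluorescence.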

Row | Molecule | IC50 [µM]
2 | CC[C@H](C)[C@H](NC(=O)[C@H](CC(N)=O)NC(=O)[C@H](CC(N)=O)NC(=O)[C@H](Cc1ccccc1)NC(=O)[C@H](CC(N)=O)NC(=O)[C@H](CC(N)=O)NC(=O)[C@H](CC(N)=O)NC(=O)[C@H](CC(N)=O)NC(=O)[C@H](CO)NC(=O)[C@H](CCCNC(=N)N)NC(C)=O)C(=O)N1CCC[C@H]1C(=O)N[C@@H](CO)C(=O)N[C@@H](CCCNC(=N)N)C(=O)N[C@@H](Cc1ccc(O)cc1)C(=O)N[C@@H](CC(N)=O)C(=O)N[C@@H](CC(C)C)C(=O)N[C@@H](Cc1ccc(O)cc1)C(=O)N[C@@H](CC(=O)O)C(N)=O [EBA175_017B] (Ac-RSNNNNFNNIPSRYNLYD-NH2) | 0.43

What follows are molecules tested against HLA-DRB1*1301 (Homo sapiens, UniProt P01903+P01911, A100E/A169T/K41T/L162R/M171V/P40S/Q125H/Q178H/Q39Y/Q99D/R42S/S66N/T262R/W38E/Y61H) (assay: biochemical). Settings: binding inhibition assay; NB = non-binder (no dose-dependent inhibition); read-out: DRB1*1301 IC50.
Format: binding
Procedure, shortened: as §1

Row | Molecule | IC50 [µM]
3 | CC[C@H](C)[C@H](NC(=O)[C@H](CC(N)=O)NC(=O)[C@H](CC(N)=O)NC(=O)[C@H](Cc1ccccc1)NC(=O)[C@H](CC(N)=O)NC(=O)[C@H](CC(N)=O)NC(=O)[C@H](CC(N)=O)NC(=O)[C@H](CC(N)=O)NC(=O)[C@H](CO)NC(=O)[C@H](CCCNC(=N)N)NC(C)=O)C(=O)N1CCC[C@H]1C(=O)N[C@@H](CO)C(=O)N[C@@H](CCCNC(=N)N)C(=O)N[C@@H](Cc1ccc(O)cc1)C(=O)N[C@@H](CC(N)=O)C(=O)N[C@@H](CC(C)C)C(=O)N[C@@H](Cc1ccc(O)cc1)C(=O)N[C@@H](CC(=O)O)C(N)=O [EBA175_017B] (Ac-RSNNNNFNNIPSRYNLYD-NH2) | > 100

These molecules were tested against T2, HLA-DRB1*1501 (Homo sapiens, UniProt P01903+P01911) (assay: biochemical). Settings: binding inhibition assay; NB = non-binder (no dose-dependent inhibition); read-out: DRB1*1501 IC50.
T2 construct: purchased
Format: binding
Procedure, shortened: as §1

Row | Molecule | IC50 [µM]
4 | CC[C@H](C)[C@H](NC(=O)[C@H](CC(N)=O)NC(=O)[C@H](CC(N)=O)NC(=O)[C@H](Cc1ccccc1)NC(=O)[C@H](CC(N)=O)NC(=O)[C@H](CC(N)=O)NC(=O)[C@H](CC(N)=O)NC(=O)[C@H](CC(N)=O)NC(=O)[C@H](CO)NC(=O)[C@H](CCCNC(=N)N)NC(C)=O)C(=O)N1CCC[C@H]1C(=O)N[C@@H](CO)C(=O)N[C@@H](CCCNC(=N)N)C(=O)N[C@@H](Cc1ccc(O)cc1)C(=O)N[C@@H](CC(N)=O)C(=O)N[C@@H](CC(C)C)C(=O)N[C@@H](Cc1ccc(O)cc1)C(=O)N[C@@H](CC(=O)O)C(N)=O [EBA175_017B] (Ac-RSNNNNFNNIPSRYNLYD-NH2) | 23.6

The molecules below were run against HLA-B*4402 (Homo sapiens, UniProt P01889, A223V/A65T/A93T/A95T/D201E/D98Y/E176V/E187L/E204Q/E69K/G107R/H137Y/K202T/L105A/L119I/N104T/N87E/Q56L/Q94N/R106L/R155S/R180D/S101N/S121R/S35A/S48T/T118I/V36M/W191S/Y140D/Y91S) (assay: In vitro class I HLA binding assay (fluorescence polarization competition)). Settings: allele B*4402; cell-free competition, fluorescence polarization at 72 hours; Non-binder = no dose-dependent inhibition.
Procedure, shortened: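 Cell-free competition assay: HLA heat-treated 53°C for 15 min to strip endogenous peptides, then mixed with fluorescent high-affinity control peptide and test peptides for 72 h to equilibrium. Displacement read by fluorescence polarization as percent inhibition; IC50 derived from a concentration range.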

Row | Molecule | IC50 (nM)
5 | NENNENNFL [EBA175_1454] | Non-binder

Same assay, conditions: allele B*4402; cell-free competition, fluorescence polarization at 72 hours; Non-binder = no dose-dependent inhibition; read-out: IC50

Row | Molecule | IC50 [µM]
6 | CC[C@H](C)[C@H](NC(=O)[C@H](Cc1c[nH]c2ccccc12)NC(=O)[C@H](CCC(N)=O)NC(=O)[C@@H](NC(=O)[C@@H](NC(=O)[C@H](CCC(N)=O)NC(=O)[C@H](CC(C)C)NC(=O)[C@H](CCC(=O)O)NC(=O)[C@@H](N)CCC(=O)O)[C@@H](C)CC)[C@@H](C)O)C(=O)O [EBA175_0316] (H-EELQITQWI-OH) | 19.6
7 | CC(C)C[C@H](NC(=O)[C@@H](NC(=O)[C@H](Cc1c[nH]cn1)NC(=O)[C@H](Cc1c[nH]c2ccccc12)NC(=O)[C@H](CCC(=O)O)NC(=O)[C@@H](N)Cc1ccccc1)[C@@H](C)O)C(=O)N[C@@H](CO)C(=O)N[C@@H](CCCCN)C(=O)N[C@@H](CCC(=O)O)C(=O)N[C@@H](Cc1ccc(O)cc1)C(=O)O [EBA175_0375] (H-FEWHTLSKEY-OH) | 19.1
8 | CC[C@H](C)[C@H](NC(=O)[C@H](CC(=O)O)NC(=O)[C@@H](NC(=O)[C@H](Cc1c[nH]cn1)NC(=O)[C@H](CO)NC(=O)[C@H](CC(C)C)NC(=O)[C@H](CCCNC(=N)N)NC(=O)[C@H](CCC(=O)O)NC(=O)[C@H](CCC(=O)O)NC(=O)[C@@H](N)CCC(=O)O)[C@@H](C)O)C(=O)O [EBA175_1211] (H-EEERLSHTDI-OH) | 19.1

Same assay, conditions: allele B*4402; fluorescence polarization competition

Row | Molecule | IC50 (nM), in vitro HLA binding affinity
9 | DEYIHKLIL [RH5_361] | Non-binder
10 | EEKDDIKNG [RH5_049] | Non-binder
11 | KDLSDMTNI [RH5_378] | Non-binder
12 | KEIDNDKENI [RH5_062] | Non-binder
13 | KEKHLNNIF [RH5_486] | Non-binder
14 | NDVPIKMEYF [RH5_506] | Non-binder
15 | NEKNDVKNN [RH5_123] | Non-binder
16 | NEYSLFITS [RH5_464] | Non-binder
